Test results as given in patent US6395288B1, “Subversion of bacterial resistance by low solubility antibiotics” (Kent State University, priority 1998, dated 2002).

How the values were obtained:
[1] = Local (cellular) toxicity in vitro, fluorescein assay; details: FS-TET disks at solubility limit (TET-HCl 20 mg/mL, TET free base 1 mg/mL)
[2] = system: MDR isotype of S. aureus (ATCC 27659); assay: Agar diffusion zone of growth inhibition, antibiotics delivered from fibrin sealant; assay type: cell-based, Staphylococcus aureus; details: in vitro, 6 mm wells filled with fibrin sealant with antibiotic, 18 h at 37° C., FIG. 2
Experimental: The method used was that of Barry,Am. Journal of Clinical Pathology, 53:149 (1970), incorporated herein by reference, with modifications. Briefly, antibiotic bioactivity was assessed by agar diffusion where the agar hydrogel was seeded with bacteria prior to solidification. Several 6 mm wells were cut into the agar, the plugs were removed by aspiration and the wells were filled with the fibrin sealant hydrogel containing various concentrations of low-solubility antibiotics. Cultures were incubated for 18 h at 37° C. Zones of growth inhibition—the area about the well where diffused antibiotic prevents growth of seeded bacteria—were recorded to the nearest mm and graphed in FIG. 2. The zone of inhibition required to document bacterial susceptibility to a particular concentration of antibiotic is indicated by a black horizontal bar. […] Moreover, increasing the local concentration of low solubility antibiotics released from fibrin sealant effectively overcomes S. aureus resistance in vitro.

[3] = system: non-multi-drug resistant (NMDR) peritonitis; assay: Prophylactic protection against lethal NMDR peritonitis in mice; assay type: in vivo; details: prophylactic treatment, 500 mg/kg

**Q.** With CN(C)[C@@H]1C(=O)C(C(N)=O)=C(O)[C@@]2(O)C(=O)C3=C(O)c4c(O)cccc4[C@@](C)(O)[C@H]3C[C@@H]12.Cl [TET-HCl] as the compound, how does the “local (cellular) toxicity, fluorescein assay” value [1] read?
**A.** Its value is “acutely toxic”.

**Q.** Which “growth inhibition (zone of growth inhibition)” value [2] does the source give for [H]/N=C(/N)N[C@H]1[C@H](O)[C@@H](O)[C@H](O[C@@H]2O[C@@H](C)[C@](O)(C=O)[C@H]2O[C@@H]2O[C@@H](CO)[C@H](O)[C@@H](O)[C@@H]2NC)[C@@H](N/C(N)=N\[H])[C@@H]1O [streptomycin] here?
**A.** The value was “appeared effective in vitro”.

**Q.** Which “protection against a lethal dose of NMDR peritonitis” value [3] does the source give for CN(C)[C@@H]1C(O)=C(C(N)=O)C(=O)[C@@]2(O)C(O)=C3C(=O)c4c(O)cccc4[C@@](C)(O)[C@H]3C[C@@H]12 [tetracycline] here?
**A.** The value was 100%.
